Test results published in patent US20230391845A1, “GLP-1, GIP AND GLUCAGON RECEPTOR TRIPLE AGONISTS” (priority 2020, published 2023).
*1 amine or outer side, *2 acyl side, *3 side chain or, on linkers, in order; H or OH if unused. Where a SMILES comes first, the peptide text is derived from it. Side-chain parts run from the residue outwards. [ ]: non-standard residue; d: D form. The star is where a group is joined. X1 = O=C(O)CCCCCCCCCCCCCCCCCCC(=O)NCC1CCC(C(=O)*)CC1; C20 diacid = O=C(O)CCCCCCCCCCCCCCCCCCC(=O)*; γGlu = O=C(O)[C@H](CCC(=O)[*:2])N[*:1]; εLys = N[C@@H](CCCCN[*:1])C(=O)[*:2]; AEEA = NCCOCCOCC(=O)O; Aib = CC(C)(N)C(=O)O

Legend:
[1] = target: T1, human GLP-1 receptor (Homo sapiens, UniProt P43220); assay: In vitro functional potency (CRE luciferase; whole cells), human GLP-1R; type: cell-based; conditions: BHK CRE luc2P hGLP-1R whole cells; Table 2; read-out: hGLP-1R CRE Luc EC50
T1 construct: expressed in transfected cells; host or cells: BHK cells (parent line BHKTS13) containing CRE luciferase
T1 sequence (P43220 24-463): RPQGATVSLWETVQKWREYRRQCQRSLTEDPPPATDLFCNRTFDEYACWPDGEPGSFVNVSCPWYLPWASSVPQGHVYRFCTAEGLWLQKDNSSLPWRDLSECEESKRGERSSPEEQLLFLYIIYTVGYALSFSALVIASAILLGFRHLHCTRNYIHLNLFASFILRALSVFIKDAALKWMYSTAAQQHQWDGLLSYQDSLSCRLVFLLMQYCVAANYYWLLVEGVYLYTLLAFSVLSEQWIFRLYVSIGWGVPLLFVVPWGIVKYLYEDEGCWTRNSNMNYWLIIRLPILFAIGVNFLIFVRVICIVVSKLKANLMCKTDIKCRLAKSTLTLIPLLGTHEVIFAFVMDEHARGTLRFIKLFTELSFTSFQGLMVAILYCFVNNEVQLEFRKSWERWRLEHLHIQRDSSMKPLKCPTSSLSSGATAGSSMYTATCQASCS
Method: The purpose of this example is to test the functional activity, or potency, of the compounds in vitro at the human and mouse GLP-1, GIP, and Gcg receptors. The in vitro functional potency is the measure of target receptor activation in a whole cell assay.
In vitro functional potency was determined by measuring the response of the target receptor in a reporter gene assay in individual cell lines. The assay was performed in stably transfected BHK cell lines that expresses one of the following G-protein coupled receptors: human GLP-1 receptor, human GIP receptor, human Gcg receptor, mouse GLP-1 receptor, mouse GIP receptor, or mouse Gcg receptor; and where each cell line contains the DNA for the cAMP response element (CRE) coupled to a promoter and the gene for firefly luciferase (CRE luciferase). When the respective receptor is activated, it results in the production of cAMP, which in turn results in expression of the luciferase protein. When assay incubation is completed, luciferase substrate (luciferin) is added resulting in the enzymatic conversion of luciferin to oxyluciferin and producing bioluminescence. The luminescence is measured as the readout for the assay.
The cells lines used in these assays were BHK cells with BHKTS13 as a parent cell line. The cell lines were derived from a clone containing the CRE luciferase element and were established by further transfection with the respective receptor to obtain the relevant cell line.
The cells were cultured at 37° C. with 5% CO2 in Cell Culture Medium. They were aliquoted and stored in liquid nitrogen. The cells were kept in continuous culture and were seeded out the day before each assay.
GLP-1R and GcgR Cell Culture Medium consisted of DMEM medium with 10% FBS, 500 µg/mL G418, and 300 µg/mL hygromycin. GIPR Cell Culture Medium consisted of DMEM medium with 10% FBS, 400 µg/mL G418, and 300 µg/mL hygromycin. Assay Buffer consisted of DMEM w/o phenol red, 10 mM Hepes, 1× Glutamax, 1% ovalbumin, and 0.1% Pluronic F-68.
• 1) Cells were plated at 5000 cells/well and incubated overnight in the assay plate. • 2) Cells were washed once in DPBS. • 3) Stocks of the test compounds and reference compounds in concentrations ranging from 100-300 pM were diluted 1:150 in Assay Buffer.
The data from the microtiter plate reader was first regressed in an Excel in order to calculate the x-axis, log scale concentrations based on the individual test compound's stock concentration and the dilutions of the assay. […] The software performs a non-linear regression (log(agonist) vs response). A minimum of two replicates was measured for each sample. The reported values are averages of the replicates.

[2] = Pharmacokinetic study in minipigs, i.v. administration; design: species or system Göttingen minipigs; conditions: minipig, in vivo, iv
Method: The purpose of this example is to determine the half-life in vivo of the triple agonists as described herein after i.v. administration to minipigs, i.e. the prolongation of their time in the body and thereby their time of action. This is done in a pharmacokinetic (PK) study, where the terminal half-life of the triple agonist in question is determined. By terminal half-life is generally meant the period of time it takes to halve a certain plasma concentration, measured after the initial distribution phase.
Female Göttingen minipigs were obtained from Ellegaard Göttingen Minipigs (Dalmose, Denmark) approximately 7-14 months of age and weighing from approximately 16-35 kg were used in the studies. The minipigs were housed individually and fed restrictedly once daily with SDS minipig diet (Special Diets Services, Essex, UK).
After at 3 weeks of acclimatisation two permanent central venous catheters were implanted in vena cava caudalis in each animal. The animals were allowed 1 week recovery after the surgery, and were then used for repeated pharmacokinetic studies with a suitable wash-out period between successive dosings.
The animals were fasted for approximately 18 hours before dosing and from 0 to 4 hours after dosing, but had adlibitum access to water during the whole period.
Intravenous injections (the volume corresponding to usually 1.5-2 nmol/kg, for example 0.1 mL/kg) of the triple agonists were given through one catheter, and blood was sampled at predefined time points for up to 14 days post dosing (preferably through the other catheter). Blood samples (for example 0.8 mL) were collected in 8 mM EDTA buffer and then centrifuged at 4° C. and 1942 g for 10 minutes.
Plasma was pipetted into Micronic tubes on dry ice and kept at −20° C. until analysed for plasma concentration of the triple agonists using ELISA, or a similar antibody-based assay, or LCMS. Individual plasma concentration-time profiles were analysed by a non-compartmental model in Phoenix WinNonLin ver. 6.4. (Pharsight Inc., Mountain View, CA, USA), and the resulting terminal half-lives (harmonic mean) determined.

| SMILES | EC50 [1] | half-life ([2]; female, Göttingen) | half-life [2] |
| --- | --- | --- | --- |
| CC[C@H](C)[C@H](NC(=O)[C@H](CO)NC(=O)[C@H](Cc1ccc(O)cc1)NC(=O)[C@H](CC(=O)O)NC(=O)[C@H](CO)NC(=O)[C@@H](NC(=O)[C@H](Cc1ccccc1)NC(=O)[C@@H](NC(=O)CNC(=O)[C@H](CCC(N)=O)NC(=O)C(C)(C)NC(=O)[C@@H](N)Cc1ccc(O)cc1)[C@@H](C)O)[C@@H](C)O)C(=O)N[C@@H](Cc1ccc(O)cc1)C(=O)N[C@@H](CC(C)C)C(=O)N[C@@H](CC(=O)O)C(=O)N[C@@H](CCCCN)C(=O)N[C@@H](CCCCNC(=O)COCCOCCNC(=O)COCCOCCNC(=O)CC[C@H](NC(=O)CCCCCCCCCCCCCCCCCCC(=O)O)C(=O)O)C(=O)N[C@@H](C)C(=O)N[C@@H](C)C(=O)NC(C)(C)C(=O)N[C@@H](CCC(=O)O)C(=O)N[C@@H](Cc1ccccc1)C(=O)N[C@H](C(=O)N[C@@H](CC(N)=O)C(=O)N[C@@H](Cc1c[nH]c2ccccc12)C(=O)N[C@@H](CC(C)C)C(=O)N[C@@H](CC(C)C)C(=O)N[C@@H](C)C(=O)NCC(=O)NCC(=O)N1CCC[C@H]1C(=O)N[C@@H](CO)C(=O)N[C@@H](CO)C(=O)NCC(=O)N[C@@H](C)C(=O)N1CCC[C@H]1C(=O)N1CCC[C@H]1C(=O)N1CCC[C@H]1C(=O)N[C@@H](CO)C(N)=O)C(C)C [Compound No. 9] (H-Y[Aib]QGTFTSDYSIYLDKK([AEEA-AEEA-γGlu-C20 diacid])AA[Aib]EFVNWLLAGGPSSGAPPPS-NH2) | 4.4 pM | 103 h | – |
| CC[C@H](C)[C@H](NC(=O)[C@H](CO)NC(=O)[C@H](Cc1ccc(O)cc1)NC(=O)[C@H](CC(=O)O)NC(=O)[C@H](CO)NC(=O)[C@@H](NC(=O)[C@H](Cc1ccccc1)NC(=O)[C@@H](NC(=O)CNC(=O)[C@H](CCC(N)=O)NC(=O)C(C)(C)NC(=O)[C@@H](N)Cc1ccc(O)cc1)[C@@H](C)O)[C@@H](C)O)C(=O)N[C@@H](Cc1ccc(O)cc1)C(=O)N[C@@H](CC(C)C)C(=O)N[C@@H](CC(=O)O)C(=O)N[C@@H](CCCCNC(=O)COCCOCCNC(=O)COCCOCCNC(=O)CC[C@H](NC(=O)C1CCC(CNC(=O)CCCCCCCCCCCCCCCCCCC(=O)O)CC1)C(=O)O)C(=O)N[C@@H](CCC(N)=O)C(=O)N[C@@H](C)C(=O)N[C@@H](C)C(=O)NC(C)(C)C(=O)N[C@@H](CCC(=O)O)C(=O)N[C@@H](Cc1ccccc1)C(=O)N[C@H](C(=O)N[C@@H](CC(N)=O)C(=O)N[C@@H](Cc1c[nH]c2ccccc12)C(=O)N[C@@H](CC(C)C)C(=O)N[C@@H](CC(C)C)C(=O)N[C@@H](C)C(=O)NCC(=O)NCC(=O)N1CCC[C@H]1C(=O)N[C@@H](CO)C(=O)N[C@@H](CO)C(=O)NCC(=O)N[C@@H](C)C(=O)N1CCC[C@H]1C(=O)N1CCC[C@H]1C(=O)N1CCC[C@H]1C(=O)N[C@@H](CO)C(N)=O)C(C)C (stereo partly shown) [Compound No. 6] (H-Y[Aib]QGTFTSDYSIYLDK([AEEA-AEEA-γGlu-X1])QAA[Aib]EFVNWLLAGGPSSGAPPPS-NH2) | – | – | 83 h |
| CC(C)C[C@H](NC(=O)[C@H](CC(C)C)NC(=O)[C@H](Cc1c[nH]c2ccccc12)NC(=O)[C@H](CCC(N)=O)NC(=O)[C@@H](NC(=O)[C@H](Cc1ccccc1)NC(=O)[C@H](CCC(=O)O)NC(=O)C(C)(C)NC(=O)[C@H](C)NC(=O)[C@H](C)NC(=O)[C@H](CCC(N)=O)NC(=O)[C@H](CCCCNC(=O)[C@@H](N)CCCCNC(=O)[C@@H](N)CCCCNC(=O)CC[C@H](NC(=O)CCCCCCCCCCCCCCCCCCC(=O)O)C(=O)O)NC(=O)[C@H](CCC(=O)O)NC(=O)[C@H](CC(C)C)NC(=O)[C@H](CC(C)C)NC(=O)[C@H](Cc1ccc(O)cc1)NC(=O)[C@H](CO)NC(=O)[C@H](Cc1ccc(O)cc1)NC(=O)[C@H](CC(=O)O)NC(=O)[C@H](CO)NC(=O)[C@@H](NC(=O)[C@H](Cc1ccccc1)NC(=O)[C@@H](NC(=O)CNC(=O)[C@H](Cc1c[nH]cn1)NC(=O)C(C)(C)NC(=O)[C@@H](N)Cc1c[nH]cn1)[C@@H](C)O)[C@@H](C)O)C(C)C)C(=O)N[C@@H](CCC(=O)O)C(=O)NCC(=O)NCC(=O)N1CCC[C@H]1C(=O)N[C@@H](CO)C(=O)N[C@@H](CO)C(=O)NCC(=O)N[C@@H](C)C(=O)N1CCC[C@H]1C(=O)N1CCC[C@H]1C(=O)N1CCC[C@H]1C(=O)N[C@@H](CO)C(N)=O [Compound No. 42] (H-H[Aib]HGTFTSDYSYLLEK([εLys-εLys-γGlu-C20 diacid])QAA[Aib]EFVQWLLEGGPSSGAPPPS-NH2; N-terminus assumed) | – | 66 h | – |
| CC[C@H](C)[C@H](NC(=O)[C@H](CO)NC(=O)[C@H](Cc1ccc(O)cc1)NC(=O)[C@H](CC(=O)O)NC(=O)[C@H](CO)NC(=O)[C@@H](NC(=O)[C@H](Cc1ccccc1)NC(=O)[C@@H](NC(=O)CNC(=O)[C@H](CCC(N)=O)NC(=O)C(C)(C)NC(=O)[C@@H](N)Cc1ccc(O)cc1)[C@@H](C)O)[C@@H](C)O)C(=O)N[C@@H](Cc1ccc(O)cc1)C(=O)N[C@@H](CC(C)C)C(=O)N[C@@H](CC(=O)O)C(=O)N[C@@H](CCCCN)C(=O)N[C@@H](CCC(N)=O)C(=O)N[C@@H](C)C(=O)N[C@@H](C)C(=O)NC(C)(C)C(=O)N[C@@H](CCCCNC(=O)COCCOCCNC(=O)COCCOCCNC(=O)CC[C@H](NC(=O)CCCCCCCCCCCCCCCCCCC(=O)O)C(=O)O)C(=O)N[C@@H](Cc1ccccc1)C(=O)N[C@H](C(=O)N[C@@H](CCC(N)=O)C(=O)N[C@@H](Cc1c[nH]c2ccccc12)C(=O)N[C@@H](CC(C)C)C(=O)N[C@@H](CC(C)C)C(=O)N[C@@H](CCC(=O)O)C(=O)NCC(=O)NCC(=O)N1CCC[C@H]1C(=O)N[C@@H](CO)C(=O)N[C@@H](CO)C(=O)NCC(=O)N[C@@H](C)C(=O)N1CCC[C@H]1C(=O)N1CCC[C@H]1C(=O)N1CCC[C@H]1C(=O)N[C@@H](CO)C(N)=O)C(C)C [Compound No. 7] (H-Y[Aib]QGTFTSDYSIYLDKQAA[Aib]K([AEEA-AEEA-γGlu-C20 diacid])FVQWLLEGGPSSGAPPPS-NH2; N-terminus assumed) | – | 79 h | – |
| CC[C@H](C)[C@H](NC(=O)[C@H](CO)NC(=O)[C@H](Cc1ccc(O)cc1)NC(=O)[C@H](CC(=O)O)NC(=O)[C@H](CO)NC(=O)[C@@H](NC(=O)[C@H](Cc1ccccc1)NC(=O)[C@@H](NC(=O)CNC(=O)[C@H](CCC(N)=O)NC(=O)C(C)(C)NC(=O)[C@@H](N)Cc1ccc(O)cc1)[C@@H](C)O)[C@@H](C)O)C(=O)N[C@@H](Cc1ccc(O)cc1)C(=O)N[C@@H](CC(C)C)C(=O)N[C@@H](CC(=O)O)C(=O)N[C@@H](CCCCNC(=O)COCCOCCNC(=O)COCCOCCNC(=O)CC[C@H](NC(=O)CCCCCCCCCCCCCCCCCCC(=O)O)C(=O)O)C(=O)N[C@@H](CCC(N)=O)C(=O)N[C@@H](C)C(=O)N[C@@H](C)C(=O)NC(C)(C)C(=O)N[C@@H](CCC(=O)O)C(=O)N[C@@H](Cc1ccccc1)C(=O)N[C@H](C(=O)N[C@@H](CC(N)=O)C(=O)N[C@@H](Cc1c[nH]c2ccccc12)C(=O)N[C@@H](CC(C)C)C(=O)N[C@@H](CC(C)C)C(=O)N[C@@H](C)C(=O)NCC(=O)NCC(=O)N1CCC[C@H]1C(=O)N[C@@H](CO)C(=O)N[C@@H](CO)C(=O)NCC(=O)N[C@@H](C)C(=O)N1CCC[C@H]1C(=O)N1CCC[C@H]1C(=O)N1CCC[C@H]1C(=O)N[C@@H](CO)C(N)=O)C(C)C [Compound No. 5] (H-Y[Aib]QGTFTSDYSIYLDK([AEEA-AEEA-γGlu-C20 diacid])QAA[Aib]EFVNWLLAGGPSSGAPPPS-NH2; N-terminus assumed) | – | 85 h | – |
| CC[C@H](C)[C@H](NC(=O)[C@H](CO)NC(=O)[C@H](Cc1ccc(O)cc1)NC(=O)[C@H](CC(=O)O)NC(=O)[C@H](CO)NC(=O)[C@@H](NC(=O)[C@H](Cc1ccccc1)NC(=O)[C@@H](NC(=O)CNC(=O)[C@H](CCC(N)=O)NC(=O)C(C)(C)NC(=O)[C@@H](N)Cc1ccc(O)cc1)[C@@H](C)O)[C@@H](C)O)C(=O)N[C@@H](Cc1ccc(O)cc1)C(=O)N[C@@H](CC(C)C)C(=O)N[C@@H](CC(=O)O)C(=O)N[C@@H](CCCCN)C(=O)N[C@@H](CCC(N)=O)C(=O)N[C@@H](C)C(=O)N[C@@H](C)C(=O)NC(C)(C)C(=O)N[C@@H](CCCCNC(=O)COCCOCCNC(=O)COCCOCCNC(=O)CC[C@H](NC(=O)C1CCC(CNC(=O)CCCCCCCCCCCCCCCCCCC(=O)O)CC1)C(=O)O)C(=O)N[C@@H](Cc1ccccc1)C(=O)N[C@H](C(=O)N[C@@H](CCC(N)=O)C(=O)N[C@@H](Cc1c[nH]c2ccccc12)C(=O)N[C@@H](CC(C)C)C(=O)N[C@@H](CC(C)C)C(=O)N[C@@H](CCC(=O)O)C(=O)NCC(=O)NCC(=O)N1CCC[C@H]1C(=O)N[C@@H](CO)C(=O)N[C@@H](CO)C(=O)NCC(=O)N[C@@H](C)C(=O)N1CCC[C@H]1C(=O)N1CCC[C@H]1C(=O)N1CCC[C@H]1C(=O)N[C@@H](CO)C(N)=O)C(C)C (stereo partly shown) [Compound No. 8] (H-Y[Aib]QGTFTSDYSIYLDKQAA[Aib]K([AEEA-AEEA-γGlu-X1])FVQWLLEGGPSSGAPPPS-NH2; N-terminus assumed) | – | – | 81 h |
